{"source": "patent US4788216A", "about": "“Medicinal uses for podophyllotoxins” (Conpharm AB, priority 1984, dated 1988)", "key": {"Acute toxicity in rabbit": {"experiment": "Acute toxicity in rabbit", "conditions": "in vivo, topical or ocular, dermal", "excerpt": "(§1) The acute toxicity of podophyllotoxin has been determined on various test animals and by various ways of administration."}, "cytotoxic cells": {"tested_on": "cytotoxic cells", "experiment": "In vitro development of cytotoxic cells", "type": "cell-based"}, "Plasmodium falciparum": {"tested_on": "Plasmodium falciparum", "experiment": "Clinical effect against malaria (number of asexual parasites in blood of patients)", "type": "in vivo", "conditions": "individual patient", "method": "The effect against malaria was determined clinically on a number of patients which had been attacked by the malaria parasite Plasmodium falciparum. Podophyllotoxin was administered in two different doses and the number of parasites in the patients was determined for each day and was noted as the number of asexual parasites per cubic millimeter of blood."}, "Solubility in water": {"experiment": "Solubility in water", "type": "physicochemical", "conditions": "in its pure state", "excerpt": "The compound podophyllotoxin has the following physical data in its pure state: […]"}, "Acute toxicity in rat": {"experiment": "Acute toxicity in rat", "conditions": "in vivo", "excerpt": "as §1"}, "Acute toxicity in mouse": {"experiment": "Acute toxicity in mouse", "conditions": "in vivo", "excerpt": "as §1"}, "[1]": {"tested_on": "formation of specific antibodies", "experiment": "Antibody formation in mice injected with sheep erythrocytes", "type": "in vivo", "conditions": "daily injections after administration of erythrocytes, spleen", "excerpt": "Injection with a suspension of erythrocytes from sheep to mice causes formation of specific antibodies against this antigen. This reaction which normally is very strong requires a cooperation between different cell types, substantially macrophages, T and B lymphocytes, and can easily be detected in the spleen of the test animals."}, "proliferation of cells": {"tested_on": "proliferation of cells", "experiment": "In vitro proliferation of cells caused by mitogenic lectins or cells from a non-related individual", "type": "cell-based"}, "[2]": {"tested_on": "psoriasis vulgaris lesions", "experiment": "Clinical investigation in psoriasis vulgaris patients, topical cream", "type": "in vivo, human (patients)", "method": "A clinical investigation was carried out with totally 152 patients of an age between 19 and 71 years (mean value 46.1 years) afflicted with psoriasis vulgaris. The patients were divided into three groups of 50, 51 and 51 persons who were treated topically with a cream containing 0.1, 0.25 and 0.5% of podophyllotoxin, respectively. Each patient was treated only on a specific attacked area of the body while other attacked areas served as comparison. The severity of the attack was judged at the start of the treatment, and 2, 4, 8, 12 and 16 weeks after this, no treatment being carried out during the last period of 4 weeks. The investigation was carried out with double blind technique and the results were treated statistically."}}, "note": "“And” between values parts separate entries of the source, which are not always exact repeats. Equal values may be shown once.", "data": [{"compound": "COc1cc([C@@H]2c3cc4c(cc3[C@H](O)[C@H]3COC(=O)[C@H]23)OCO4)cc(OC)c1OC", "note": "[podophyllotoxin]", "values": [{"measurement": "LD50", "setting": "Acute toxicity in rabbit", "value": 200, "unit": "mg/kg"}, {"measurement": "inhibition of development of cytotoxic cells", "setting": "cytotoxic cells", "value": "inhibits the development of cytotoxic cells"}, {"measurement": "effects at markedly lower doses (development of cytotoxic cells)", "setting": "cytotoxic cells; markedly lower doses", "value": "at markedly lower doses these effects increase"}, {"measurement": "Remarks (outcome)", "setting": "Plasmodium falciparum; 1.5 mg per day (t.i.d.)", "value": "Marked reduction of parasites"}, {"measurement": "number of asexual parasites, day 0", "setting": "Plasmodium falciparum; 1.5 mg per day (t.i.d.)", "value": "660 asexual parasites per cubic mi and 13710 asexual parasites per cubic mi and 1410 asexual parasites per cubic mi and 960 asexual parasites per cubic mi and 13080 asexual parasites per cubic mi and 4380 asexual parasites per cubic mi"}, {"measurement": "number of asexual parasites, day 1", "setting": "Plasmodium falciparum; 1.5 mg per day (t.i.d.)", "value": "180 asexual parasites per cubic mi and 3000 asexual parasites per cubic mi and 360 asexual parasites per cubic mi and 90 asexual parasites per cubic mi and 510 asexual parasites per cubic mi and 1560 asexual parasites per cubic mi"}, {"measurement": "number of asexual parasites, day 2", "setting": "Plasmodium falciparum; 1.5 mg per day (t.i.d.)", "value": "0 asexual parasites per cubic mi and 120 asexual parasites per cubic mi and 180 asexual parasites per cubic mi"}, {"measurement": "number of asexual parasites, day 3", "setting": "Plasmodium falciparum; 1.5 mg per day (t.i.d.)", "value": "0 asexual parasites per cubic mi and 660 asexual parasites per cubic mi"}, {"measurement": "number of asexual parasites, day 4", "setting": "Plasmodium falciparum; 1.5 mg per day (t.i.d.)", "value": "180 asexual parasites per cubic mi and 0 asexual parasites per cubic mi and 60 asexual parasites per cubic mi and 1400 asexual parasites per cubic mi"}, {"measurement": "number of asexual parasites, day 5", "setting": "Plasmodium falciparum; 1.5 mg per day (t.i.d.)", "value": "270 asexual parasites per cubic mi and 0 asexual parasites per cubic mi and 60 asexual parasites per cubic mi"}, {"measurement": "number of asexual parasites, day 6", "setting": "Plasmodium falciparum; 1.5 mg per day (t.i.d.)", "value": "270 asexual parasites per cubic mi and 0 asexual parasites per cubic mi and 60 asexual parasites per cubic mi"}, {"measurement": "number of asexual parasites, day 7", "setting": "Plasmodium falciparum; 1.5 mg per day (t.i.d.)", "value": "270 asexual parasites per cubic mi and 0 asexual parasites per cubic mi and 60 asexual parasites per cubic mi"}, {"measurement": "Remarks (outcome)", "setting": "Plasmodium falciparum; 3.0 mg per day (t.i.d.)", "value": "Cured"}, {"measurement": "number of asexual parasites, day 0", "setting": "Plasmodium falciparum; 3.0 mg per day (t.i.d.)", "value": "2880 asexual parasites per cubic mi and 2060 asexual parasites per cubic mi and 6080 asexual parasites per cubic mi and 320 asexual parasites per cubic mi"}, {"measurement": "number of asexual parasites, day 1", "setting": "Plasmodium falciparum; 3.0 mg per day (t.i.d.)", "value": "2520 asexual parasites per cubic mi and 1600 asexual parasites per cubic mi and 2000 asexual parasites per cubic mi and 60 asexual parasites per cubic mi"}, {"measurement": "number of asexual parasites, day 2", "setting": "Plasmodium falciparum; 3.0 mg per day (t.i.d.)", "value": "60 asexual parasites per cubic mi and 0 asexual parasites per cubic mi"}, {"measurement": "number of asexual parasites, day 3", "setting": "Plasmodium falciparum; 3.0 mg per day (t.i.d.)", "value": "540 asexual parasites per cubic mi and 0 asexual parasites per cubic mi"}, {"measurement": "number of asexual parasites, day 4", "setting": "Plasmodium falciparum; 3.0 mg per day (t.i.d.)", "value": "600 asexual parasites per cubic mi and 0 asexual parasites per cubic mi"}, {"measurement": "number of asexual parasites, day 5", "setting": "Plasmodium falciparum; 3.0 mg per day (t.i.d.)", "value": "600 asexual parasites per cubic mi and 0 asexual parasites per cubic mi"}, {"measurement": "number of asexual parasites, day 6", "setting": "Plasmodium falciparum; 3.0 mg per day (t.i.d.)", "value": "0 asexual parasites per cubic mi"}, {"measurement": "number of asexual parasites, day 7", "setting": "Plasmodium falciparum; 3.0 mg per day (t.i.d.)", "value": "0 asexual parasites per cubic mi"}, {"measurement": "solubility", "setting": "Solubility in water", "value": 120, "unit": "µg/mL"}, {"measurement": "LD50", "setting": "Acute toxicity in rat; iv", "value": 10, "unit": "mg/kg"}, {"measurement": "LD50", "setting": "Acute toxicity in rat; topical or ocular, dermal", "value": 500, "unit": "mg/kg"}, {"measurement": "LD50", "setting": "Acute toxicity in mouse; iv", "value": 20, "unit": "mg/kg"}, {"measurement": "LD50", "setting": "Acute toxicity in mouse; po", "value": 100, "unit": "mg/kg"}, {"measurement": "inhibition of antibody formation against sheep erythrocytes", "setting": "[1]", "value": "inhibited in a dose-dependent way"}, {"measurement": "time to recover complete reactivity to the stimuli", "setting": "proliferation of cells; cells treated with podophyllotoxin", "value": "≤ 24", "unit": "h"}, {"measurement": "effects at markedly lower doses (proliferation)", "setting": "proliferation of cells; in vitro, markedly lower doses", "value": "at markedly lower doses these effects increase"}, {"measurement": "inhibition of proliferation of cells", "setting": "proliferation of cells; in vitro, mitogenic lectins or cells from a non-related individual", "value": "inhibits the proliferation of cells"}, {"measurement": "reversibility of secondary effects", "setting": "[2]; after interruption of the treatment", "value": "disappeared after interruption of the treatment"}, {"measurement": "difference between treated and untreated lesions", "setting": "[2]; after two weeks and in the course of the treatment", "value": "statistically significant difference"}, {"measurement": "patients free from symptoms or with only mild ones", "setting": "[2]; at the fifth control, untreated lesions: only two patients", "value": "70-75%"}, {"measurement": "improvement of severity of treated lesions with associated symptoms", "setting": "[2]; cream 0.1, 0.25 and 0.5%, all three dosage levels", "value": "statistically significant improvements"}, {"measurement": "patients reporting secondary effects such as rash", "setting": "[2]; of 152 patients, three cream strengths together", "value": 11, "unit": "patients"}, {"measurement": "deterioration of severity or symptoms of treated lesions in follow-up", "setting": "[2]; weeks 13 to 16, no treatment", "value": "no deterioration occurred"}]}]}
